According to US5428182A, “Bile acid derivatives, process for their preparation and use of these compounds as pharmaceuticals” (Hoechst Aktiengesellschaft, priority 1992, dated 1995):

Target: T1, Na^+ -dependent bile acid transport system (Oryctolagus cuniculus, UniProt Q28727)
T1 construct: Brush border membrane vesicles from the intestinal cells of the small intestine were prepared by the so-called Mg^2+ precipitation method; from tissue; host or cells: terminal ileum (terminal 7/10 of small intestine) of male New Zealand rabbits, brush border membrane vesicles
T1 sequence (Q28727 1-347): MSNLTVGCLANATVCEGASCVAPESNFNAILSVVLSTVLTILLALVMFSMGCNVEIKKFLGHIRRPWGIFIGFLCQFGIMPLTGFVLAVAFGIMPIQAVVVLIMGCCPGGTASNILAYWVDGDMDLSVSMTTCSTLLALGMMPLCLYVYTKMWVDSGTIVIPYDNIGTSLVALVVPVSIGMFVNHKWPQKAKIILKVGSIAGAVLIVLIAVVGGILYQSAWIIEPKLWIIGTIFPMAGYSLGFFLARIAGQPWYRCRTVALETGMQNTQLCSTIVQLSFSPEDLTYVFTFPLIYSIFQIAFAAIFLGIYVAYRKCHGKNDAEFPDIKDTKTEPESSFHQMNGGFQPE
Assay: inhibition of Na+-dependent [3H]-taurocholate absorption in brush border membrane vesicles of rabbit ileum (membrane filtration technique)
Format: biochemical
Conditions: 50 μM taurocholate, customarily 1 minute, pH 7.4; for IC50Na (TCDC) / IC50Na (Substance): quotient of IC50Na of the standard TCDC and of the substance, Na+-dependent transport (difference Na-T-B minus K-T-B); for IC50 (TCDC) / IC50 (Substance): quotient of IC50 of the standard taurochenodeoxycholate (TCDC) and of the substance
Procedure: The biological testing of the compounds according to the invention was carried out by determining the inhibition of [^3 H]-taurocholate absorption in brush border membrane vesicles of the rabbit ileum. The inhibition test was carried out as follows:
Brush border membrane vesicles from the intestinal cells of the small intestine were prepared by the so-called Mg^2+ precipitation method. Male New Zealand rabbits (2 to 2.5 kg body weight) were sacrificed by intravenous injection of 0.5 ml of an aqueous solution of 2.5 mg of tetracaine HCl, 100 T 61® and 25 mg of mebezonium iodide. The small intestine was removed and rinsed with ice-cold physiological saline solution. The terminal 7/10 of the small intestine (measured in the oral-rectal direction, i.e. the terminal ileum, which contains the active Na^+ -dependent bile acid transport system) were used for the preparation of the brush border membrane vesicles. The intestines were frozen under nitrogen at -80° C. in plastic bags. For the preparation of the membrane vesicles, the frozen intestines were thawed at 30° C. in a water bath. The mucosa was scraped off and suspended in 60 ml of ice-cold 12 mM tris/HCl buffer (pH 7.1)/300 mM mannitol, 5 mM EGTA/ 10 mg/l of phenylmethylsulfonyl fluoride/l mg/l of trypsin inhibitor from soybeans (32 U/mg)/0.5 mg/l of trypsin inhibitor from bovine lung (193 U/mg)/5 mg/l of bacitracin. After dilution to 300 ml with ice-cold distilled water, the suspension was homogenized using an Ultraturrax (18-rod, IKAWerk Staufen, FRG) for 3 minutes at 75% maximum power with ice-cooling. After addition of 3 ml of 1M MgCl2 solution (final concentration 10 mM), the homogenate was allowed to stand at 0° C. for exactly 1 minute. As a result of addition of Mg^2+, the cell membranes aggregate and precipitate with the exception of the brush border membranes. After centrifugation at 3000×g for 15 minutes (5000 rpm, SS-34 rotor), the precipitate is discarded and the supernatant which contains the brush border membranes is centrifuged at […] for 30 minutes (15,000 rpm, SS-34 rotor). The supernatant was discarded and the precipitate was rehomogenized in 60 ml of 12 mM tris/HCl buffer (pH 7.1)/60 mM mannitol/5 mM EGTA using a Potter Elvejhem homogenizer (Braun Melsungen, 900 rpm, 10 strokes). After addition of 0.1 ml of 1M MgCl2 solution and an incubation time of 15 minutes at 0° C., centrifugation was once more carried out at 3000×g for 15 minutes. The supernatant was then centrifuged again at 46,000×g (15,000 rpm, SS-34 rotor) for 30 minutes. The precipitate was taken up in 30 ml of 10 mM tris/hepes buffer (pH 7.4)/300 mM mannitol and homogeneously resuspended at 1000 rpm by 20 strokes in a Potter Elvejhem homogenizer. After centrifugation at 48,000×g (20,000 rpm, SS-34 rotor) for 30 minutes, the precipitate was taken up in 0.5 to 2 ml of tris/HEPES buffer (pH 7.4)/280mM mannitol (final concentration 20 mg/ml) and resuspended with the aid of a tuberculin syringe having a 27 gauge needle. The vesicles were either used immediately after preparation for transport investigations or stored in liquid nitrogen at -196° C. in 4 mg portions.
The absorption of substrates in the brush border membrane vesicles described above was determined by means of the so-called membrane filtration technique. 10 μl of the vesicle suspension (100 μg of protein) were pipetted as drops onto the wall of a polystyrene incubation tube (11×70 mm) which contained the incubation medium with the appropriate ligands (90 μl). The incubation medium contained 0.75 μl=0.75 μCi of [^3 H(G)]-taurocholate (specific activity: 2.1 Ci/mMol)/0.5 μl of 10 mM taurocholate/8.75 μl of sodium transport buffer (10 mM tris/HEPES (pH 7.4)/100 mM mannitol/100 mM NaCl) (Na-T-B) or 8.75 μl of potassium transport buffer (10 mM tris/hepes (pH 7.4)/100 mM mannitol/100 mM KCl) (K-T-B) and 80 μl of the inhibitor solution concerned, depending on the experiment, dissolved in Na-T buffer or K-T buffer. […]

Compound | IC50Na (TCDC) / IC50Na (Substance) | IC50 (TCDC) / IC50 (Substance)
C[C@H](CCC(=O)O)[C@H]1CC[C@H]2[C@@H]3[C@H](O)C[C@@H]4C[C@@H](OCCNC(=O)CCC(CCC(=O)NCCO[C@H]5CC[C@@]6(C)[C@@H](C5)C[C@@H](O)[C@@H]5[C@@H]6C[C@H](O)[C@]6(C)[C@@H]([C@H](C)CCC(=O)O)CC[C@@H]56)(CCC(=O)NCCO[C@H]5CC[C@@]6(C)[C@@H](C5)C[C@@H](O)[C@@H]5[C@@H]6C[C@H](O)[C@]6(C)[C@@H]([C@H](C)CCC(=O)O)CC[C@@H]56)[N+](=O)[O-])CC[C@]4(C)[C@H]3C[C@H](O)[C@]12C [Example 7] | 0.34 | 0.29
C[C@H](CCC(=O)O)[C@H]1CC[C@H]2[C@@H]3[C@H](O)C[C@@H]4C[C@@H](OCCNC(=O)CCOCC(C)(COCCC(=O)NCCO[C@H]5CC[C@@]6(C)[C@@H](C5)C[C@@H](O)[C@@H]5[C@@H]6C[C@H](O)[C@]6(C)[C@@H]([C@H](C)CCC(=O)O)CC[C@@H]56)COCCC(=O)NCCO[C@H]5CC[C@@]6(C)[C@@H](C5)C[C@@H](O)[C@@H]5[C@@H]6C[C@H](O)[C@]6(C)[C@@H]([C@H](C)CCC(=O)O)CC[C@@H]56)CC[C@]4(C)[C@H]3C[C@H](O)[C@]12C [Example 10] | 0.26 | 0.24
C[C@H](CCC(=O)O)[C@H]1CC[C@H]2[C@@H]3[C@H](O)C[C@@H]4C[C@@H](NC(=O)CCOCCCOCC(C)(COCCCOCCC(=O)N[C@H]5CC[C@@]6(C)[C@@H](C5)C[C@@H](O)[C@@H]5[C@@H]6C[C@H](O)[C@]6(C)[C@@H]([C@H](C)CCC(=O)O)CC[C@@H]56)COCCCOCCC(=O)N[C@H]5CC[C@@]6(C)[C@@H](C5)C[C@@H](O)[C@@H]5[C@@H]6C[C@H](O)[C@]6(C)[C@@H]([C@H](C)CCC(=O)O)CC[C@@H]56)CC[C@]4(C)[C@H]3C[C@H](O)[C@]12C [Example 11] | 0.36 | 0.29
C[C@H](CCC(=O)O)[C@H]1CC[C@H]2[C@@H]3[C@H](O)C[C@@H]4C[C@@H](OCCCCCCNC(=O)[C@]5(C)C[C@](C)(C(=O)NCCCCCCO[C@H]6CC[C@@]7(C)[C@@H](C6)C[C@@H](O)[C@@H]6[C@@H]7C[C@H](O)[C@]7(C)[C@@H]([C@H](C)CCC(=O)O)CC[C@@H]67)C[C@](C)(C(=O)NCCCCCCO[C@H]6CC[C@@]7(C)[C@@H](C6)C[C@@H](O)[C@@H]6[C@@H]7C[C@H](O)[C@]7(C)[C@@H]([C@H](C)CCC(=O)O)CC[C@@H]67)C5)CC[C@]4(C)[C@H]3C[C@H](O)[C@]12C [Example 16] | 0.31 | 0.37
C[C@H](CCC(=O)O)[C@H]1CC[C@H]2[C@@H]3[C@H](O)C[C@@H]4C[C@H](CCNC(=O)c5cc(C(=O)NCC[C@@H]6CC[C@@]7(C)[C@@H](C6)C[C@@H](O)[C@@H]6[C@@H]7C[C@H](O)[C@]7(C)[C@@H]([C@H](C)CCC(=O)O)CC[C@@H]67)cc(C(=O)NCC[C@@H]6CC[C@@]7(C)[C@@H](C6)C[C@@H](O)[C@@H]6[C@@H]7C[C@H](O)[C@]7(C)[C@@H]([C@H](C)CCC(=O)O)CC[C@@H]67)c5)CC[C@]4(C)[C@H]3C[C@H](O)[C@]12C [Example 18] | 0.76 | 0.85
C[C@H](CCC(=O)O)[C@H]1CC[C@H]2[C@@H]3[C@H](O)C[C@@H]4C[C@@H](OCCCCCNC(=O)c5cc(C(=O)NCCCCCO[C@H]6CC[C@@]7(C)[C@@H](C6)C[C@@H](O)[C@@H]6[C@@H]7C[C@H](O)[C@]7(C)[C@@H]([C@H](C)CCC(=O)O)CC[C@@H]67)cc(C(=O)NCCCCCO[C@H]6CC[C@@]7(C)[C@@H](C6)C[C@@H](O)[C@@H]6[C@@H]7C[C@H](O)[C@]7(C)[C@@H]([C@H](C)CCC(=O)O)CC[C@@H]67)c5)CC[C@]4(C)[C@H]3C[C@H](O)[C@]12C [Example 20] | 0.86 | 0.43
C[C@H](CCC(=O)O)[C@H]1CC[C@H]2[C@@H]3[C@H](O)C[C@@H]4C[C@@H](OCCCCCCNC(=O)c5cc(C(=O)NCCCCCCO[C@H]6CC[C@@]7(C)[C@@H](C6)C[C@@H](O)[C@@H]6[C@@H]7C[C@H](O)[C@]7(C)[C@@H]([C@H](C)CCC(=O)O)CC[C@@H]67)cc(C(=O)NCCCCCCO[C@H]6CC[C@@]7(C)[C@@H](C6)C[C@@H](O)[C@@H]6[C@@H]7C[C@H](O)[C@]7(C)[C@@H]([C@H](C)CCC(=O)O)CC[C@@H]67)c5)CC[C@]4(C)[C@H]3C[C@H](O)[C@]12C [Example 21] | 0.59 | 0.29
C[C@H](CCC(=O)O)[C@H]1CC[C@H]2[C@@H]3[C@H](O)C[C@@H]4C[C@@H](OCCCCCNC(=O)[C@]5(C)C[C@](C)(C(=O)NCCCCCO[C@H]6CC[C@@]7(C)[C@@H](C6)C[C@@H](O)[C@@H]6[C@@H]7C[C@H](O)[C@]7(C)[C@@H]([C@H](C)CCC(=O)O)CC[C@@H]67)C[C@](C)(C(=O)NCCCCCO[C@H]6CC[C@@]7(C)[C@@H](C6)C[C@@H](O)[C@@H]6[C@@H]7C[C@H](O)[C@]7(C)[C@@H]([C@H](C)CCC(=O)O)CC[C@@H]67)C5)CC[C@]4(C)[C@H]3C[C@H](O)[C@]12C [Example 31] | 0.93 | 1.26
C[C@H](CCC(=O)O)[C@H]1CC[C@H]2[C@@H]3[C@H](O)C[C@@H]4C[C@@H](NC(=O)[C@]5(C)C[C@](C)(C(=O)N[C@H]6CC[C@@]7(C)[C@@H](C6)C[C@@H](O)[C@@H]6[C@@H]7C[C@H](O)[C@]7(C)[C@@H]([C@H](C)CCC(=O)O)CC[C@@H]67)C[C@](C)(C(=O)N[C@H]6CC[C@@]7(C)[C@@H](C6)C[C@@H](O)[C@@H]6[C@@H]7C[C@H](O)[C@]7(C)[C@@H]([C@H](C)CCC(=O)O)CC[C@@H]67)C5)CC[C@]4(C)[C@H]3C[C@H](O)[C@]12C [Example 33] | 1.04 | 0.77
CC(CCC(=O)O)C1CCC2C3C(O)CC4CC(OCCNC(=O)C5C(C(=O)NCCOC6CCC7(C)C(C6)CC(O)C6C7CC(O)C7(C)C(C(C)CCC(=O)O)CCC67)C(c6ccccc6)C5C(=O)NCCOC5CCC6(C)C(C5)CC(O)C5C6CC(O)C6(C)C(C(C)CCC(=O)O)CCC56)CCC4(C)C3CC(O)C12C (stereo not shown) [Example 45] | 0.23 | 0.32
CC(CCC(=O)O)C1CCC2C3C(O)CC4CC(OCCNC(=O)C5C(C(=O)NCCOC6CCC7(C)C(C6)CC(O)C6C7CC(O)C7(C)C(C(C)CCC(=O)O)CCC67)C(C(=O)NCCOC6CCC7(C)C(C6)CC(O)C6C7CC(O)C7(C)C(C(C)CCC(=O)O)CCC67)C5C(=O)NCCOC5CCC6(C)C(C5)CC(O)C5C6CC(O)C6(C)C(C(C)CCC(=O)O)CCC56)CCC4(C)C3CC(O)C12C (stereo not shown) [Example 47] | 0.23 | 0.24
